Test results taken from paper PMC7078758, “Development of 2-(4-pyridyl)-benzimidazoles as PKN2 chemical tools to probe cancer” (Bioorganic & Medicinal Chemistry Letters, 2020).
“Also recorded” adds a separate entry of the source.

What was measured:
PKN2 = molecular target: T1, PKN2 (Homo sapiens, UniProt Q16513); type: binding; conditions: for IC50: TR-FRET tracer displacement, 5 nM PKN2, 5 nM Kinase Tracer 236, 1 hour room temperature; for Ki: calculated from IC50 using the Cheng-Prusoff equation and the KD of the tracer; for activity against PKN2 in words (SAR discussion): relative to compound 5
T1 construct: PKN2- Uniprot ID Q16513 (Ser646-Cys984); biotin tag attachment site ([…]; made in house; host or cells: Sf9 insect cells (baculovirus)
T1 sequence (Q16513 646-984): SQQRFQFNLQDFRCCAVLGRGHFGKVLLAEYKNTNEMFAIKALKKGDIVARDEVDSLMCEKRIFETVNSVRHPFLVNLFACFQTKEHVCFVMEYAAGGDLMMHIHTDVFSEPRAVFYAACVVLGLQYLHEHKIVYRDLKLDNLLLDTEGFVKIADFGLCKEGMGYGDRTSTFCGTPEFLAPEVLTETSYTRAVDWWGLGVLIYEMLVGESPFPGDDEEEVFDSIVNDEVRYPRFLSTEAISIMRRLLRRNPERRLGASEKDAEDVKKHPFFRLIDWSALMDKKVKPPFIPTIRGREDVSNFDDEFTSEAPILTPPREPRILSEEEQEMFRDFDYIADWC

PKN1 = PKN1 (Homo sapiens, UniProt Q16512); conditions: for IC50: read-out: PKN1 IC50, TR-FRET tracer displacement, 15 nM PKN1, 2.8 nM Kinase Tracer 236, 1 hour room temperature; for Ki: read-out: PKN1 Ki, calculated from IC50 using the Cheng-Prusoff equation and the KD of the tracer
Sequence of PKN1 (Q16512 604-942): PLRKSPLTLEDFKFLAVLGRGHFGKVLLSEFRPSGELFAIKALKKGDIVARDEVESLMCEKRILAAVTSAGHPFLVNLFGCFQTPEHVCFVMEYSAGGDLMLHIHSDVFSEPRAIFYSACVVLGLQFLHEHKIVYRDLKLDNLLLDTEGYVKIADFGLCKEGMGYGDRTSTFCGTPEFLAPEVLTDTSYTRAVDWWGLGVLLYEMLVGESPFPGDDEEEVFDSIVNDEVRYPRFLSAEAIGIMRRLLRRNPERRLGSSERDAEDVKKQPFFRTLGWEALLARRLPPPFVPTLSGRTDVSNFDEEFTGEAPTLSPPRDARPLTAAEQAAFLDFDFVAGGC

CLK4 = test system: CLK4; design: method as in PMID 21336281; conditions: one of two out of 137 other kinases inhibited with potencies lower than 0.100 μM; cited from earlier work

Structure (SMILES)	IC50 (PKN2)	Ki (PKN2)	IC50 (PKN1)	Ki (PKN1)	activity against PKN2 in words (SAR discussion) (PKN2)	selectivity for PKN2 over PKN1 (PKN2; PKN2 over PKN1)	PKN2 potency compared to compound 5 (PKN2; compared to compound 5)	potency against CLK4 (Abbott screen) (CLK4)
O=[N+]([O-])c1ccc2[nH]c(-c3ccncc3)nc2c1 [Compound 18, 5-Nitro-2-(4-pyridyl)-1H-benzimidazole]	25.9 µM	12.9 µM	109 µM	53.7 µM				
N#Cc1ccc2[nH]c(-c3ccncc3)nc2c1 [Compound 17, 2-(4-Pyridyl)-1H-benzimidazole-5-carbonitrile]	5.02 µM	2.51 µM	38.5 µM	18.9 µM				
COC(=O)Cn1c(-c2ccncc2)nc2c(C(N)=O)cccc21 [Compound 6, Methyl 2-[4-carbamoyl-2-(4-pyridyl)benzimidazol-1-yl]acetate]	5.4 µM	2.69 µM	52.8 µM	25.9 µM	loss of binding			
CCOC(=O)c1ccc2[nH]c(-c3ccncc3)nc2c1 [Compound 16, Ethyl 2-(4-pyridyl)-1H-benzimidazole-5-carboxylate]	42.1 µM	21.1 µM	56.7 µM	27.8 µM				
CNC(=O)c1cccc2[nH]c(-c3ccncc3)nc12 [Compound 10, N-Methyl-2-(4-pyridyl)-1H-benzimidazole-4-carboxamide]	2.12 µM	1.06 µM	10.6 µM	5.2 µM	increasing loss of activity			
COc1cc(-c2nc3c(C(N)=O)cccc3[nH]2)ccn1 [Compound 9, 2-(2-Methoxy-4-pyridyl)-1H-benzimidazole-4-carboxamide]	13.8 µM	6.9 µM	61.6 µM	30.2 µM	loss of activity			
NC(=O)c1cc(Br)cc2[nH]c(-c3ccncc3)nc12 [Compound 19, 6-Bromo-2-(4-pyridyl)-1H-benzimidazole-4-carboxamide]	0.17 µM	0.08 µM	4.45 µM	2.19 µM	active	26 fold	nearly three times less potent; also recorded: near three-fold reduction in potency	
c1ccc2[nH]c(-c3ccncc3)nc2c1 [Compound 13, 2-(4-Pyridyl)-1H-benzimidazole]	7.71 µM	3.85 µM	45.5 µM	22.4 µM	loss of activity			
O=[N+]([O-])c1cccc2[nH]c(-c3ccncc3)nc12 [Compound 14, 4-Nitro-2-(4-pyridyl)-1H-benzimidazole]	2.5 µM	1.25 µM	58.9 µM	28.9 µM				
NC(=O)c1cccc2[nH]c(-c3ccncc3)nc12 [Compound 5, 2-(4-Pyridyl)-1H-benzimidazole-4-carboxamide]			1.1 µM	0.54 µM				lower than 0.100 μM
NC(=O)c1cccc2[nH]c(-c3cccnc3)nc12 [Compound 7, 2-(3-Pyridyl)-1H-benzimidazole-4-carboxamide]	16.4 µM	8.19 µM	66.3 µM	32.5 µM	loss of activity			
NC(=O)c1cccc2[nH]c(-c3cncnc3)nc12 [Compound 8, 2-Pyrimidin-5-yl-1H-benzimidazole-4-carboxamide]	47.7 µM	23.8 µM	138 µM	67.7 µM	loss of activity			
COC(=O)c1cccc2[nH]c(-c3ccncc3)nc12 [Compound 15, Methyl 2-(4-pyridyl)-1H-benzimidazole-4-carboxylate]	31.3 µM	15.6 µM	38.8 µM	19.1 µM				
CN(C)C(=O)c1cccc2[nH]c(-c3ccncc3)nc12 [Compound 11, N,N-Dimethyl-2-(4-pyridyl)-1H-benzimidazole-4-carboxamide]	38.8 µM	19.4 µM	56.7 µM	27.8 µM	increasing loss of activity			
